Test results taken from PMC5439667, “Thermal stability and kinetic constants for 129 variants of a family 1 glycoside hydrolase reveal that enzyme activity and stability can be separately designed” (PLoS ONE, 2017).

Molecular target: BglB (Paenibacillus polymyxa, UniProt P22505)
Test: Michaelis-Menten kinetics of […]-nitrophenol release (as in the previous study)
Type: biochemical
Settings: wild type, batched replicates re-measured here; conditions of the kinetic assay not printed in the main text

BglB, sequence (P22505 whole entry): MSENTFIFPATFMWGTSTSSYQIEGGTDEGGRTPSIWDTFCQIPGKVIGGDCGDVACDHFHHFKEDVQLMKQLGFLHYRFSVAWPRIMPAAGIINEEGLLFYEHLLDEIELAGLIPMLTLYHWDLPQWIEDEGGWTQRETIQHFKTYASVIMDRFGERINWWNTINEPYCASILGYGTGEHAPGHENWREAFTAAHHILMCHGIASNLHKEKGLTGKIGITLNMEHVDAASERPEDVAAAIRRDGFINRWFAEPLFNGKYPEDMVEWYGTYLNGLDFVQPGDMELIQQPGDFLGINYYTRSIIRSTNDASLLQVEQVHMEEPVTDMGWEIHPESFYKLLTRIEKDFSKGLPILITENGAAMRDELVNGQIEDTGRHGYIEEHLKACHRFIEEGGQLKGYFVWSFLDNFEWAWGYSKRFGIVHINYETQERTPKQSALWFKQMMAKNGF

O=[N+]([O-])c1ccc(O[C@@H]2O[C@H](CO)[C@@H](O)[C@H](O)[C@H]2O)cc1 [pNPG]
KM: batched replicates of the native BglB sequence
